We go through seven compounds from US20100240718A1, “NOVEL HETEROARYL-SUBSTITUTED ACETONE DERIVATIVE, SUITABLE FOR INHIBITING PHOSPHOLIPASE A2” (WESTFALISCHE WILHELMS UNIVERSITÄT MÜNSTER, priority 2007, published 2010).

Data set [1] has as its target T1, cytosolic phospholipase A2 (Homo sapiens, UniProt P47712).
T1 construct: cytosolic phospholipase A2 obtained from human thrombocytes; from tissue; host or cells: human thrombocytes (platelets)
T1 sequence (P47712 1-749): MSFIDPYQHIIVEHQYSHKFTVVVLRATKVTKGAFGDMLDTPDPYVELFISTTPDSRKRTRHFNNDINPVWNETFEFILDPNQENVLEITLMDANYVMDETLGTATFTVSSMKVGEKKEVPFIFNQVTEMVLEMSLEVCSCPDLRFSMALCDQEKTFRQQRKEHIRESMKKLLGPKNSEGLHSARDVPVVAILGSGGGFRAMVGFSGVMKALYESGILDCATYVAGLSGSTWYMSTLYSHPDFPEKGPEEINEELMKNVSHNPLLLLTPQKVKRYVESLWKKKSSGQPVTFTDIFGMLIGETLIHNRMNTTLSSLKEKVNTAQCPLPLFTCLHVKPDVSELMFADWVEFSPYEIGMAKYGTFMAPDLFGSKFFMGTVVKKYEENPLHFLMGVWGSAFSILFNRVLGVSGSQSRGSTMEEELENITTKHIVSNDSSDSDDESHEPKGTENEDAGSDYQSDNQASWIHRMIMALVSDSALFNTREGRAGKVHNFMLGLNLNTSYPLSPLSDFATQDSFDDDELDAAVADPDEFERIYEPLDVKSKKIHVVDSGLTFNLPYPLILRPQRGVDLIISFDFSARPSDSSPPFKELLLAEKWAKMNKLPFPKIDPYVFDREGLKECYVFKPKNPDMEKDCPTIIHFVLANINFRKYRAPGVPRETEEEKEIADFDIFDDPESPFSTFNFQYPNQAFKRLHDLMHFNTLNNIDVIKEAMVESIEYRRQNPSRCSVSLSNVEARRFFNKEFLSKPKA
Briefly: Inhibition of cytosolic phospholipase A2 isolated from human thrombocytes (arachidonic acid release from SAPC, HPLC-UV). The class given is biochemical. The settings on record: for inhibition at 0.1 µM: read-out: inhibition of the activity of cytosolic phospholipase A2 compared to the control value. How it is done:
The effectiveness of the inventive compounds is determinable by referring to the inhibition of the cytosolic phospholipase A2. For this purpose, cytosolic phospholipase A2 that had been isolated from human thrombocytes was used.
The IC50 value of the compounds for the inhibition of cytosolic phospholipase A2 corresponds to the concentration of the compounds that is necessary to reduce the activity of the enzyme by 50%.
The IC50 values were calculated from the values of cytosolic phospholipase A2 inhibition obtained from different concentrations with the help of the Probit model (see Hartke, Mutschler, DAB 9 Kommentar Band 1 S. 733-734, Wissenschaftliche Verlagsgesellschaft Stuttgart 1978).
The effectiveness of the inventive compounds was determined based on the inhibition of cytosolic phospholipase A2. The determination was accomplished, if not described otherwise hereinafter, as was described in Schmitt, M.; Lehr, M., “HPLC assay with UV spectrometric detection for the evaluation of inhibitors of cytosolic phospholipase A2” J. Pharm. Biomed. Anal. 2004, 35, 135-142.
Cytosolic phospholipase A2 that had been isolated from human thrombocytes was used as the enzyme source.
To produce a solution of covesicles from the substrate 1-stearoyl-2-arachidonoyl-sn-glycero-3-phosphocholine (SAPC) (Sigma) and 1,2-dioleoyl-sn-glycerol (DOG) (Sigma), corresponding amounts of the chloroform solution from SAPC (10 mg/ml) and DOG (5 mg/ml) were mixed and then the chloroform was steamed away in a stream of nitrogen. The residue was mixed with enough Tris buffer ([…], 1 mM dithiothreitol, 150 mM NaCl, 1 mM CaCl2, ph 8 at 20° C.) that a concentration for SAPC of 0.26 mM and a concentration for DOG of 0.13 mM were present. The mixture was homogenized for 10 minutes in an ultrasonic bath at 35° C. for the purpose of forming covesicles.
2 μl of the solution of the respective compound in DMSO (made from a 5 mM stock solution in DMSO) or, in the case of the control value, 2 μl of DMSO, were each mixed with 78 μl of the substrate mixture in Eppendorf tubes.
After 10 minutes of preincubation in a water bath at 37° C., 20 μl of the solution of cytosolic phospholipase A2 obtained from human thrombocytes were added to each of the […] and this mixture was incubated for another 60 minutes at 37° C. The incubation preparations contained 0.20 mM SAPC and 0.10 mM DOG per 100 μl. After that, the enzyme reaction was stopped by adding 400 μl of a solution of acetronitrile/methanol/0.1 M aqueous EDTA-solution in ratios 16:15:1 (v/v/v), whereby this solution contained 3 μg/ml nordihydroguaiaretic acid (NDGA) (Sigma) as antioxidant and 1.55 μg/ml 4-undecyloxybenzoic acid as internal standard. Subsequently, the samples were placed in ice for 10 to 15 minutes and then stored at −20° C. until solid phase extraction.
The octadecyl solid phase extraction columns with a bed volume of 200 mg and a capacity of 3 ml (Baker) were initially washed with 6 ml methanol and then with 6 ml water. The samples were diluted with 2 ml 0.005 M aqueous NaOH and then introduced to the solid phase columns. […] The eluate was mixed with 600 μl water. 100 μl of this solution was injected into the HPLC apparatus (Waters, Waters 717plus Autosampler, Waters 515 pump, and Waters 2487 UV detector). Data analysis was accomplished using the software program Millennium. For the column, a Nucleosil 100-3 C18 column (125×3 mm) with a Nucleosil 100-3 C18 pre-column (20×3 mm) (CS-Chromatographie-Service, Langerwehe) was used. The flow rate was 0.4 ml/min; the detection wavelength was 200 nm. A mixture of acetonitrile/water/phosphoric acid (85%) in ratios 770:230:1 (v/v/v) was used for the flow medium. The chromatogram run time was 30 minutes. Before the next injection, the column was always equilibrated for 15 minutes.

The test system of data set [2] is contact dermatitis induced by benzalkonium chloride. Briefly: Anti-inflammatory properties in vivo, contact dermatitis induced by benzalkonium chloride (ear swelling). The conditions noted are these: topical, 10 μl of a 1% solution in acetone (0.1 mg/ear), BALB/c mice, measured 1 to 72 hours. How it is done:
The determination of the anti-inflammatory properties in vivo in the model of contact dermatitis induced by benzalkonium chloride was accomplished, if not stated otherwise hereinafter, according to the method published by E. Hyun et al., British Journal of Pharmacology, 2004, 143, S. 618-625.
BALB/c mice (Harlan Winkelmann GmbH, Borchen) were used as laboratory animals. A contact dermatitis was induced by introducing 10 μl per ear of a 5% benzalkonium chloride solution (Sigma) in olive oil/acetone (1:5) to the dorsal side of both ears for each of 8 lab animals per experimental group. This led to a swelling of the ears.
After 1 hour, 3 hours, 5 hours, 7 hours, 24 hours, 48 hours, and 72 hours, the ear thicknesses were measured using a digital caliper (Roth, Karlsruhe).

Data set [3] is described as follows: Determining water solubility in phosphate buffered saline (pH 7.4), HPLC. It counts as physicochemical. The settings on record: phosphate buffered saline (PBS buffer), aqueous buffer, thermodynamic from solid; PBS buffer pH 7.4; range or bound stated jointly for the listed compounds. How it is done:
The water solubility of the compounds was determined by administering aqueous phosphate buffer (pH 7.4) to each respective compound, and the dissolved amount was determined after shaking and centrifugation, as is described in example 12.
The determination of the water solubility of the compound was accomplished, if not hereinafter stated otherwise, with reference to the method published by Kim et al., J. Med. Chem. 2005, 48, 3621-3629.
The mixture was placed in an ultrasonic bath (Sonorex TK52, Bandelin) for 10 minutes and then shaken lightly in a shaking water bath (GFL 1083). Subsequently, the mixture was centrifuged for 10 minutes at 4000×g and room temperature. About 1 ml clear solution was taken from the supernatant. 200 μl of the clear solution were mixed with 250 μl acetonitrile (VWR) and 50 μl 0.1 M phosphoric acid. From this solution, a volume of between 5 μl and 100 μl was injected into an HPLC system (Waters, Waters 717plus Autos ampler, Waters 515 pump, and Waters 2487 UV detector)
For reference solution 1, 2 μl of a 5 mM solution of the respective compound in dimethyl sulfoxide (DMSO) were mixed with 198 μl PBS buffer, 250 μl acetonitrile, and 50 μl 0.1 M phosphoric acid. For reference solution 2, 2 μl of a 5 mM solution of the respective compound in DMSO were mixed with 398 μl PBS buffer, 500 μl acetonitrile, and 100 μl 0.1 M phosphoric acid.
C18 Aqua®-columns from the company Phenomenex (Aqua®, RP18, 75×4.6 mm, 3 μm) were used as the stationary phase.
were determined under corresponding conditions.

For the compound `CCCCCCCCc1ccc(OCC(=O)Cn2cc(C(=O)CCCC(=O)O)c3cc(C(=O)O)ccc32)cc1` [formula (2), 3-(4-carboxybutanoyl)-1-[3-(4-octylphenoxy)-2-oxopropyl]indole-5-carboxylic acid], the inhibition – broadly, the percentage by which the read-out fell short of the control – at 0.1 µM in data set [1] was 30 to 97%. For the compound `CCCCCCCCc1ccc(OCC(=O)Cn2cc(C(=O)CCCCC(=O)O)c3cc(C(=O)O)ccc32)cc1` [formula (3), 3-(5-carboxypentanoyl)-1-[3-(4-octylphenoxy)-2-oxopropyl]indole-5-carboxylic acid], in data set [2], the “increase in ear thickness compared to the negative control” value is recorded as “significantly decreased increase in ear thickness”. As for `O=C(O)CCC(=O)c1cn(CC(=O)COc2ccc(Oc3ccc(C(F)(F)F)cc3)cc2)c2ccc(C(=O)O)cc12` [formula (4), 3-(3-carboxypropanoyl)-1-{2-oxo-3-[4-(4-trifluormethylphenoxy)phenoxy]propyl}indole-5-carboxylic acid], in data set [1], the IC50 – broadly, the point on the concentration scale where inhibition reaches its midpoint – is 190 nM and the inhibition at 0.1 µM lay within 30 to 97%. In data set [3], the solubility (usually the dissolved amount per volume that the medium holds) is 190 to 410 µg/mL. As to `COC(=O)CCC(=O)c1cn(CC(=O)COc2ccc(Oc3ccc(C(F)(F)F)cc3)cc2)c2ccc(C(=O)O)cc12` [formula (5), 3-(3-methoxycarbonylpropanoyl)-1-{2-oxo-3-[4-(4-trifluormethylphenoxy)phenoxy]propyl}indole-5-carboxylic acid], in data set [1], half-maximal inhibition (IC50) was put at 22 nM and the inhibition at 0.1 µM was in the range of 30 to 97%. Also, the solubility in data set [3] was 15 to 35 µg/mL. For `CCCCCCCCc1ccc(OCC(=O)Cn2cc(C(=O)C(F)(F)F)c3cc(C(=O)O)ccc32)cc1` [formula (6), 1-[3-(4-octylphenoxy)-2-oxopropyl]-3-(2,2,2-trifluoracetyl)indole-5-carboxylic acid], the inhibition at 0.1 µM in data set [1] was 30 to 97%. In data set [3], `CCCCCCCCc1ccc(OCC(=O)Cn2cc(C(C)=O)c3cc(C(=O)O)ccc32)cc1` [formula (10), reference compound] had a solubility of less than 1 µg/mL.

With `CCCCCCCCc1ccc(OCC(=O)Cn2cc(C(=O)OC)c3cc(C(=O)O)ccc32)cc1` [formula (11), reference compound], the solubility in data set [3] is less than 1 µg/mL.
